Results on 5 compounds are retold here after the NIST ThermoML archive (doi:10.1016/j.fluid.2013.11.008).

For series [1] the following is noted: for mass density: 298.15 K, 101.33 kPa, Liquid, Pycnometric method.
Series [2] in a line: Molar enthalpy of transition or fusion. To be noted: Crystal; DSC.

SMILES strings stand for the structures. ± gives the expanded uncertainty stated by the source.

Usually mass density stands for the mass of a sample divided by its volume.

With `C[C@]12CCC(=O)C=C1CC[C@@H]1[C@@H]2CC[C@]2(C)C(=O)CC[C@@H]12` [androst-4-ene-3,17-dione], the Normal melting temperature in series [1] (Crystal, DTA) amounted to 171.39 ± 0.7 °C. Moreover, the “Molar enthalpy of transition or fusion” value in series [2] worked out at 6.14 ± 0.382 kcal/mol. For the compound `CCCCO` [butan-1-ol], in series [1], the mass density was found to be 805.5 ± 40 kg/m3.

As to `CCO` [ethanol], in series [1], the mass density came out at 786.4 ± 40 kg/m3.

As for `CO` [methanol], the mass density in series [1] was found to be 785.9 ± 40 kg/m3. On the same count and under the same terms, the value for `CC(C)O` [propan-2-ol] was 782.7 ± 40 kg/m3.
